Measurements reported in ChEMBL document CHEMBL1149499, “Synthesis and agonist activity of cyclic ADP-ribose analogues with substitution of the northern ribose by ether or alkane chains” (J Med Chem, 2006).
Active and inactive are the calls of the source. No cut-off for these calls is given here.

Tests used:
Assay type in all cases: functional, cell-based
Settings in all cases: Homo sapiens
Jurkat [1] = experiment: Agonist activity against cADPR/RyR assessed as induction of calcium influx in intact jurkat T cells at 500 uM
Jurkat [2] = experiment: Antagonist activity against cADPR/RyR assessed as inhibition of anti CD3-stimulated calcium influx in intact jurkat T cells at 500 uM
Jurkat [3] = experiment: Induction of calcium flux in single jurkat T cell by confocal calcium imaging experiment at 500 uM

SMILES | Activity (Jurkat [1]) | Activity (Jurkat [2]) | Activity (Jurkat [3])
N=c1c2ncn3c2ncn1CCCCOP(=O)(O)OP(=O)(O)OC[C@H]1O[C@@H]3[C@H](O)[C@@H]1O | Active | inactive | 
N=c1c2ncn3c2ncn1CCOCCOP(=O)(O)OP(=O)(O)OC[C@H]1O[C@@H]3[C@H](O)[C@@H]1O | Active | inactive | Active
N=c1c2ncn3c2ncn1CCCCCOP(=O)(O)OP(=O)(O)OC[C@H]1O[C@@H]3[C@H](O)[C@@H]1O | Active | inactive | 
